Experimental data from PMC6980355 (Journal of medicinal chemistry, 2019).
In brackets after ≈: the same amount, converted by molar mass.

Columns and labels:
[1] = tested on: E. coli (ΔtolC); assay type: cell-based; details: for MIC E. coli (ΔtolC): knockout of efflux pump component TolC; for MIC E. coli (ΔtolC) +PMBN: PMBN 8 μg/mL
[2] = tested on: P. aeruginosa (ΔmexAB, etc.); assay type: cell-based; details: knockouts of MexAB-OprM, MexCD-OprJ, MexEF-OprN
[3] = tested on: E. coli (ATCC 25922); experiment: Bacterial Cytological Profiling; assay type: cell-based; details: ~3-fold the MIC for 2 hours (for 1); fluorescence microscopy
[4] = target: P. aeruginosa BC (Pseudomonas aeruginosa, UniProt P37798); experiment: P. aeruginosa BC enzyme assay; details: relative to parent 4a
[5] = tested on: P. aeruginosa mexT mutants; assay type: cell-based; details: for potency reduction by any mexT mutation: any of the three individual mexT mutations
[6] = pKa; assay type: physicochemical

Sequence of P. aeruginosa BC (P37798 whole entry): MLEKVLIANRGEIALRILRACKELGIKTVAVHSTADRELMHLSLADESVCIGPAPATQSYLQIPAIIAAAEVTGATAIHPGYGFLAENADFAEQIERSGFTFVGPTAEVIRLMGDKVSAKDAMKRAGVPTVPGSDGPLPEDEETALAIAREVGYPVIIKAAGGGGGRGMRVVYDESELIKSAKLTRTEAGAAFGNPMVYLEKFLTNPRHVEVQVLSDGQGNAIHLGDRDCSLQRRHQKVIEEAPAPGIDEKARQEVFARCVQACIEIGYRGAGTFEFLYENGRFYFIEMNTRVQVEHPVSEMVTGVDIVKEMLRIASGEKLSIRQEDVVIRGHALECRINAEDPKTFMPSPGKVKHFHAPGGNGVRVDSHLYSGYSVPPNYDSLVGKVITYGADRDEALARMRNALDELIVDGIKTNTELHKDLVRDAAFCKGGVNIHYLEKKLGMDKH

SMILES | MIC E. coli (ΔtolC) [1] [mg/L] | MIC E. coli (ΔtolC) +PMBN [1] [mg/L] | MIC P. aeruginosa (ΔmexAB, etc.) [2] [mg/L] | further results
Nc1ncc2cc(-c3c(Cl)cccc3Cl)c(N)nc2n1 [4a] | 0.5 (≈ 1.63 µM) | 0.25 (≈ 0.817 µM) | 16 (≈ 52.3 µM) | 
Nc1ncc2cc(-c3ccccc3-c3ccccc3)c(N)nc2n1 [4b, 6-([1,1'-biphenyl]-2-yl)pyrido[2,3-d]pyrimidine-2,7-diamine] | 0.5 (≈ 1.6 µM) | 0.25 (≈ 0.798 µM) |  | 
Nc1ncc2cc(-c3ccccc3-c3cccnc3)c(N)nc2n1 [4c, 6-[2-(3-pyridyl)phenyl]pyrido[2,3-d]pyrimidine-2,7-diamine] | 2 (≈ 6.36 µM) | 0.5 (≈ 1.59 µM) | 16 (≈ 50.9 µM) | 
Nc1ncc2cc(-c3c(Cl)cccc3-c3cccnc3)c(N)nc2n1 [4d, 6-[2-chloro-6-(3-pyridyl)phenyl]pyrido[2,3-d]pyrimidine-2,7-diamine] |  |  | 4 (≈ 11.5 µM) | 
CC(C)COc1cccc(Cl)c1-c1cc2cnc(N)nc2nc1N [4f, 6-(2-chloro-6-isobutoxy-phenyl)pyrido[2,3-d]pyrimidine-2,7-diamine] | 0.25 (≈ 0.727 µM) |  |  | 
Nc1ncc2cc(-c3c(Cl)cccc3Cl)c(N3CCC(N)(CO)C3)nc2n1 (stereo not drawn) [13c, [3-amino-1-[2-amino-6-(2,6-dichlorophenyl)pyrido[2,3-d]pyrimidin-7-yl]pyrrolidin-3-yl]methanol] | 1 (≈ 2.47 µM) |  |  | 
NCC1(F)CCN(c2nc3nc(N)ncc3cc2-c2c(Cl)cccc2Cl)C1 (stereo not drawn) [13d, 7-[3-(aminomethyl)-3-fluoro-pyrrolidin-1-yl]-6-(2,6-dichlorophenyl)pyrido[2,3-d]pyrimidin-2-amine] |  | 1 (≈ 2.46 µM) |  | 
NCC1(O)CCN(c2nc3nc(N)ncc3cc2-c2c(Cl)cccc2Cl)C1 (stereo not drawn) [13e, 1-[2-amino-6-(2,6-dichlorophenyl)pyrido[2,3-d]pyrimidin-7-yl]-3-(aminomethyl)pyrrolidin-3-ol] | 1 (≈ 2.47 µM) |  | >64 | 
NCC1CCN(c2nc3nc(N)ncc3cc2-c2c(Cl)cccc2Cl)C1 (stereo not drawn) [13f, 7-[3-(aminomethyl)pyrrolidin-1-yl]-6-(2,6-dichlorophenyl)pyrido[2,3-d]pyrimidin-2-amine] |  |  |  | cytological profile [3]: cytological profiles very similar to each other and to parent compound 1; improvement in BC inhibition (IC50) compared to 4a [4]: 5 fold
NCC1CCN(c2nc3nc(N)ncc3cc2-c2c(Cl)cccc2Cl)CC1 [13g, 7-[4-(aminomethyl)-1-piperidyl]-6-(2,6-dichlorophenyl)pyrido[2,3-d]pyrimidin-2-amine] | 1 (≈ 2.48 µM) |  | 64 (≈ 159 µM) | 
Nc1ncc2cc(-c3c(Cl)cccc3Cl)c(N3C[C@@H]4[C@@H](N)[C@@H]4C3)nc2n1 [13h, 7-((1R,5S,6s)-6-amino-3-azabicyclo[3.1.0]hexan-3-yl)-6-(2,6-dichlorophenyl)pyrido[2,3-d]pyrimidin-2-amine] |  |  |  | improvement in BC inhibition (IC50) compared to 4a [4]: ~10 fold
Nc1ncc2cc(-c3c(Cl)cccc3-c3cccnc3)c(N3C[C@@H]4[C@@H](N)[C@@H]4C3)nc2n1 [14a, 7-[(1R,5S)-6-amino-3-azabicyclo[3.1.0]hexan-3-yl)-6-[2-chloro-6-(3-pyridyl)phenyl]pyrido[2,3-d]pyrimidin-2-amine] | 0.03 (≈ 0.0698 µM) |  |  | potency reduction by any mexT mutation [5]: unaffected
Nc1ncc2cc(-c3c(Cl)cccc3-c3ccncc3)c(N3C[C@@H]4[C@@H](N)[C@@H]4C3)nc2n1 [14b, 7-[(1R,5S)-6-amino-3-azabicyclo[3.1.0]hexan-3-yl)-6-[2-chloro-6-(4-pyridyl)phenyl]pyrido[2,3-d]pyrimidin-2-amine] | 0.03 (≈ 0.0698 µM) | 0.015 (≈ 0.0349 µM) | 2 (≈ 4.65 µM) | 
COc1ncc(-c2cccc(Cl)c2-c2cc3cnc(N)nc3nc2N2C[C@@H]3[C@@H](N)[C@@H]3C2)cc1F [14c, 7-[(1R,5S)-6-amino-3-azabicyclo[3.1.0]hexan-3-yl)-6-[2-chloro-6-(5-fluoro-6-methoxy-3-pyridyl)phenyl]pyrido[2,3-d]pyrimidin-2-amine] | 0.015 (≈ 0.0314 µM) | 0.008 (≈ 0.0167 µM) | 2 (≈ 4.18 µM) | 
Cc1ncc(-c2cccc(Cl)c2-c2cc3cnc(N)nc3nc2N2C[C@@H]3[C@@H](N)[C@@H]3C2)s1 [14d, 7-[(1R,5S)-6-amino-3-azabicyclo[3.1.0]hexan-3-yl)-6-[2-chloro-6-(2-methylthiazol-5-yl)phenyl]pyrido[2,3-d]pyrimidin-2-amine] | 0.008 (≈ 0.0178 µM) |  | 1 (≈ 2.22 µM) | 
CC(C)COc1cccc(Cl)c1-c1cc2cnc(N)nc2nc1N1C[C@@H]2[C@@H](N)[C@@H]2C1 [14e, 7-[(1R,5S)-6-amino-3-azabicyclo[3.1.0]hexan-3-yl)-6-(2-chloro-6-isobutoxy-phenyl)pyrido[2,3-d]pyrimidin-2-amine] | 0.03 (≈ 0.0706 µM) | 0.015 (≈ 0.0353 µM) |  | potency reduction by any mexT mutation [5]: unaffected; cytological profile [3]: cytological profiles very similar to each other and to parent compound 1
O=C(O)c1cn(C2CC2)c2cc(N3CCNCC3)c(F)cc2c1=O [ciprofloxacin, reference compound] |  |  |  | resistance of mexT mutants to the antibiotic ([5]; data not shown): elevated resistance
Nc1ncc2cc(-c3c(Br)cccc3Br)c(N)nc2n1 [compound 1, reference compound] | 0.5 (≈ 1.27 µM) | 0.12 (≈ 0.304 µM) | 16 (≈ 40.5 µM) | pKa [6]: 4.8; potency reduction by any mexT mutation [5]: > 8 fold
